Literature values, collected in US20170173097A1, “COMPOSITIONS FOR ENHANCING DETOXIFICATION AND USES THEREOF” (Specialty Nutrition Group, Inc., priority 2014, published 2017).
Where two headings read alike, the source gives them in different places.

System: beta-glucuronidase

O=C([O-])[C@@H](O)[C@@H](O)[C@H](O)[C@@H](O)C(=O)[O-].[Ca+2] [calcium D-glucarate]
inhibition of beta-glucuronidase (in the blood): 57%
inhibition of beta-glucuronidase (in the intestines): 39%
inhibition of beta-glucuronidase (in the liver): 44%
inhibition of beta-glucuronidase (in the lungs): 37%
